Test results from patent US12582598B2, “Topical anti-inflammatory pharmaceutical composition comprising Zileuton” (QURIENT CO., LTD., priority 2019, dated 2026).
Values after ≈ are worked out from the molar mass of the structure shown.

Tests used:
[1] = tested on: phorbol ester induced ear edema in ICR mice; assay: Phorbol ester induced ear edema test; assay type: in vivo
Experimental: Phorbol Ester Induced Ear Edema Test
The effect of Zileuton-containing formulations on phorbol ester induced ear edema in ICR mice was evaluated. One hundred and twenty (120) female ICR mice were assigned to eleven (11) groups by randomization with BioBook software to achieve similar mean weight and right ear thickness baseline among groups. Mice were terminated by 95% CO2 asphyxiation and then cervical dislocation.
Totally nine (9) Zileuton-containing formulations which are SO13, SO17, WB6, Gel-10, Gel-11, LO3, LO13, SPC19 and Zileuton 1.0% cream were selected for the tests Dexamethasone were used for the reference and Acetone was treated to the vehicle group.
Mice were anesthetized with 2-5 isoflurane. The mice were sensitized by painting 5 μg of phorbol ester dissolved in 0.02 mL of Acetone on ear inside and out. […] Six (6) hours after the modeling, the both side's ear thickness were measured after anesthetized by isoflurane (2-3%), respectively. Ear swelling response was determined by ear thickness measured with a micrometer before challenge and 6 hours after challenge and reported as the mean change in ear thickness (ΔT±S.E.M.). Percent suppression of ear swelling response was calculated as % suppression=[1−(ΔT of sensitized mice exposed to experimental treatment/ΔT of sensitized mice exposed to vehicle treatment)]×100.

[2] = Approximate solubility of Zileuton in various solvents/vehicles; assay type: physicochemical
Experimental: Solubility of Zileuton in Various Solvents
Approximately solubility of the Zileuton was measured in different vehicles. Semi-soild and waxy solid excipients were melted and tested at 50° C. or 70° C.

With `C[C@@H]1C[C@H]2[C@@H]3CCC4=CC(=O)C=C[C@]4(C)[C@@]3(F)[C@@H](O)C[C@]2(C)[C@@]1(O)C(=O)CO` [Dex, Dexamethasone] the “ear swelling (ear swelling response)” value ([1]; ICR mice, phorbol ester 5 μg/ear, result in words) was “significant decrease in ear swelling” and the “Suppression Rate: % suppression Vs G1-right ear” value ([1]; female ICR mice, phorbol ester (PMA) 5 μg/ear, topical treatment, ear thickness 6 hours after challenge, vs vehicle (Acetone) group) was 27.14%.

`CC(c1cc2ccccc2s1)N(O)C(N)=O` (racemic) [Zileuton, (±)-1-(1-(benzo[b]thiophen-2-yl)ethyl)-1-hydroxyurea] showed a solubility ([2]; 25 mM sodium citrate buffer, 25 °C, pH 4, aqueous buffer, vehicle 25 mM sodium citrate buffer solution (pH = 4)) of under 5 mg/mL, a solubility ([2]; 20% 2-Hydroxypropyl-β-cyclodextrin in water, 25 °C, aqueous with cosolvent or surfactant or cyclodextrin, vehicle 20% 2-Hydroxypropyl-β-cyclodextrin in water) of 10 to 16.7 mg/mL (≈ 42.3 to 70.7 mM) and a solubility ([2]; 20% Poloxamer 188 in water, 25 °C, aqueous with cosolvent or surfactant or cyclodextrin, vehicle 20% Poloxamer 188 water) of under 5 mg/mL. It also gave a solubility ([2]; 20% Sulfobutylether-β-cyclodextrin in water, 25 °C, aqueous with cosolvent or surfactant or cyclodextrin, vehicle 20% Sulfobutylether-β-cyclodextrin in water) of 10 to 16.7 mg/mL (≈ 42.3 to 70.7 mM), a solubility ([2]; 25 °C, pH 4, aqueous with cosolvent or surfactant or cyclodextrin, vehicle 20% 2-Hydroxypropyl-β-cyclodextrin in pH 4 sodium citrate buffer) of 10 to 16.7 mg/mL (≈ 42.3 to 70.7 mM) and a solubility ([2]; 25 °C, pH 4, aqueous with cosolvent or surfactant or cyclodextrin, vehicle 20% Sulfobutylether-β-cyclodextrin in pH 4 sodium citrate buffer) of 5 to 10 mg/mL (≈ 21.2 to 42.3 mM). For the same molecule, the solubility ([2]; Beeswax polyethylene glycol-8, 70 °C, oil or lipid, vehicle Beeswax polyethylene glycol-8, 70° C.) was 15.7 to 25 mg/mL (≈ 66.4 to 106 mM), the solubility ([2]; Caprylic glycerides, 50 °C, oil or lipid, vehicle Caprylic glycerides) was 18.2 to 28.6 mg/mL (≈ 77 to 121 mM) and the solubility ([2]; Caprylocaproyl polyoxyl glycerides, 25 °C, oil or lipid, vehicle Caprylocaproyl polyoxyl glycerides) was 40 to 66.7 mg/mL (≈ 169 to 282 mM). The solubility ([2]; Castor oil, 25 °C, oil or lipid, vehicle Castor oil) was under 5 mg/mL, the solubility ([2]; Corn oil, 25 °C, oil or lipid, vehicle Corn oil) was under 5 mg/mL and the solubility ([2]; Diethylene glycol monoethyl ether, 25 °C, organic solvent or mixture, vehicle Diethylene glycol monoethyl ether) was over 200 mg/mL. It also gave a solubility ([2]; Dimethyl acetamide, 25 °C, organic solvent or mixture, vehicle Dimethyl acetamide) of 66.7 to 100 mg/mL (≈ 282 to 423 mM), a solubility ([2]; Dimethyl formamide, 25 °C, organic solvent or mixture, vehicle Dimethyl formamide) of 100 to 200 mg/mL (≈ 423 to 846 mM) and a solubility ([2]; Dimethyl sulfoxide, 25 °C, organic solvent or mixture, vehicle Dimethyl sulfoxide) of 100 to 200 mg/mL (≈ 423 to 846 mM). The solubility ([2]; Ethanol, 25 °C, organic solvent or mixture, vehicle Ethanol) was 40 to 50 mg/mL (≈ 169 to 212 mM), the solubility ([2]; Ethyl oleate, 25 °C, oil or lipid, vehicle Ethyl oleate) was under 5 mg/mL and the solubility ([2]; Ethylene glycol palmitostearate, 70 °C, oil or lipid, vehicle Ethylene glycol palmitostearate) was 50 to 100 mg/mL (≈ 212 to 423 mM). It also gave a solubility ([2]; Glycerin, 25 °C, organic solvent or mixture, vehicle Glycerin) of under 10 mg/mL, a solubility ([2]; Glyceryl mono and di stearate, 70 °C, oil or lipid, vehicle Glyceryl mono and di stearate) of 25 to 50 mg/mL (≈ 106 to 212 mM) and a solubility ([2]; Glyceryl monocaprate type I, 25 °C, oil or lipid, vehicle Glyceryl monocaprate type I) of 8.3 to 12.5 mg/mL (≈ 35.1 to 52.9 mM). It also gave a solubility ([2]; Glyceryl monolinoleate, 25 °C, oil or lipid, vehicle Glyceryl monolinoleate) of under 5 mg/mL, a solubility ([2]; Glyceryl monostearate, 70 °C, oil or lipid, vehicle Glyceryl monostearate) of 25 to 50 mg/mL (≈ 106 to 212 mM) and a solubility ([2]; Hexylene glycol, 25 °C, organic solvent or mixture, vehicle Hexylene glycol) of 25 to 50 mg/mL (≈ 106 to 212 mM). For the same molecule, the solubility ([2]; Isopropyl myristate, 25 °C, oil or lipid, vehicle Isopropyl myristate) was under 5 mg/mL, the solubility ([2]; Lanolin, 70 °C, oil or lipid, vehicle Lanolin) was under 5 mg/mL and the solubility ([2]; Lauroyl polyoxyl-6 glycerides, 50 °C, oil or lipid, vehicle Lauroyl polyoxyl-6 glycerides) was under 10 mg/mL. It also gave a solubility ([2]; Lauroyl polyoxyl-32 glycerides, 50 °C, oil or lipid, vehicle Lauroyl polyoxyl-32 glycerides) of under 10 mg/mL, a solubility ([2]; Linoleoyl polyoxyl-6 glycerides, 25 °C, oil or lipid, vehicle Linoleoyl polyoxyl-6 glycerides) of under 5 mg/mL and a solubility ([2]; Liquid paraffin, 25 °C, oil or lipid, vehicle Liquid paraffin) of under 5 mg/mL. The solubility ([2]; Medium chain triglycerides, 25 °C, oil or lipid, vehicle Medium chain triglycerides) was under 5 mg/mL, the solubility ([2]; N-methyl-2-pyrrolidone, 25 °C, organic solvent or mixture, vehicle N-methyl-2-pyrrolidone) was over 200 mg/mL and the solubility ([2]; Oleic acid, 25 °C, oil or lipid, vehicle Oleic acid) was under 5 mg/mL. It also gave a solubility ([2]; Oleoyl polyoxyl-6 glycerides, 25 °C, oil or lipid, vehicle Oleoyl polyoxyl-6 glycerides) of under 5 mg/mL, a solubility ([2]; Olive oil, 25 °C, oil or lipid, vehicle Olive oil) of under 5 mg/mL and a solubility ([2]; Paraffin, 70 °C, oil or lipid, vehicle Paraffin) of under 5 mg/mL. For the same molecule, the solubility ([2]; Peceol, 25 °C, oil or lipid, vehicle Peceol) was under 5 mg/mL, the solubility ([2]; Poly-oxyethylene esters of 12-hydroxystearic acid, 50 °C, organic solvent or mixture, vehicle Poly-oxyethylene esters of 12-hydroxystearic acid) was 40 to 100 mg/mL (≈ 169 to 423 mM) and the solubility ([2]; Polyethylene glyco-40 hydrogenated castor oil, 50 °C, organic solvent or mixture, vehicle Polyethylene glyco-40 hydrogenated castor oil) was 22.2 to 28.6 mg/mL (≈ 93.9 to 121 mM). It also gave a solubility ([2]; Polyethylene glycol 200, 25 °C, organic solvent or mixture, vehicle Polyethylene glycol 200, 25° C.) of 50 to 66.7 mg/mL (≈ 212 to 282 mM), a solubility ([2]; Polyethylene glycol 300, 25 °C, organic solvent or mixture, vehicle Polyethylene glycol 300, 25° C.) of 40 to 66.7 mg/mL (≈ 169 to 282 mM) and a solubility ([2]; Polyethylene glycol 400, 25 °C, organic solvent or mixture, vehicle Polyethylene glycol 400, 25° C.) of 40 to 66.7 mg/mL (≈ 169 to 282 mM). It also gave a solubility ([2]; Polyethylene glycol 1500, 70 °C, organic solvent or mixture, vehicle Polyethylene glycol 1500, 70° C.) of 50 to 100 mg/mL (≈ 212 to 423 mM), a solubility ([2]; Polyethylene glycol 3350, 70 °C, organic solvent or mixture, vehicle Polyethylene glycol 3350, 70° C.) of 25 to 50 mg/mL (≈ 106 to 212 mM) and a solubility ([2]; Polyethylene glycol 6000, 70 °C, organic solvent or mixture, vehicle Polyethylene glycol 6000, 70° C.) of 25 to 50 mg/mL (≈ 106 to 212 mM). For the same molecule, the solubility ([2]; Polyethylene glycol octadecyl ether, 25 °C, organic solvent or mixture, vehicle Polyethylene glycol octadecyl ether) was 10 to 11.1 mg/mL (≈ 42.3 to 47 mM), the solubility ([2]; Polyethylene glycol sorbitan monolaurate, 25 °C, organic solvent or mixture, vehicle Polyethylene glycol sorbitan monolaurate) was 12.5 to 14.3 mg/mL (≈ 52.9 to 60.5 mM) and the solubility ([2]; Polyoxy ethylene sorbitan monooleate, 25 °C, organic solvent or mixture, vehicle Polyoxy ethylene sorbitan monooleate) was 12.5 to 14.3 mg/mL (≈ 52.9 to 60.5 mM). It also gave a solubility ([2]; Polyoxy ethylene sorbitan monostearate, 25 °C, organic solvent or mixture, vehicle Polyoxy ethylene sorbitan monostearate) of 33.3 to 50 mg/mL (≈ 141 to 212 mM), a solubility ([2]; Polyoxyl 35 hydrogenated castor oil, 25 °C, organic solvent or mixture, vehicle Polyoxyl 35 hydrogenated castor oil) of 12.5 to 14.3 mg/mL (≈ 52.9 to 60.5 mM) and a solubility ([2]; Propylene glycol dicaprylate, 25 °C, oil or lipid, vehicle Propylene glycol dicaprylate) of under 5 mg/mL. For the same molecule, the solubility ([2]; Propylene glycol monocaprylate type II, 25 °C, oil or lipid, vehicle Propylene glycol monocaprylate type II) was 12.5 to 25 mg/mL (≈ 52.9 to 106 mM), the solubility ([2]; Propylene glycol monolaurate, 25 °C, oil or lipid, vehicle Propylene glycol monolaurate) was 8.3 to 12.5 mg/mL (≈ 35.1 to 52.9 mM) and the solubility ([2]; Propylene glycol, 25 °C, organic solvent or mixture, vehicle Propylene glycol) was 40 to 66.7 mg/mL (≈ 169 to 282 mM). For the same molecule, the solubility ([2]; Sorbitan monolaurate, 25 °C, oil or lipid, vehicle Sorbitan monolaurate) was under 5 mg/mL, the solubility ([2]; Sorbitane monooleate, 25 °C, oil or lipid, vehicle Sorbitane monooleate) was under 5 mg/mL and the solubility ([2]; Triethanolamine, 25 °C, organic solvent or mixture, vehicle Triethanolamine) was under 10 mg/mL. It also gave a solubility ([2]; Water, 25 °C, vehicle Water) of under 5 mg/mL, a solubility ([2]; White vaseline, 70 °C, oil or lipid, vehicle White vaseline) of under 5 mg/mL and a solubility ([2]; White wax, 70 °C, oil or lipid, vehicle White wax) of under 5 mg/mL. The solubility ([2]; d-a-tocopheryl polyethylene glycol 1000 succinate, 50 °C, oil or lipid, vehicle d-a-tocopheryl polyethylene glycol 1000 succinate) was under 10 mg/mL.
